From ChEMBL document CHEMBL3243921, “2-Pyrrolidinylideneureas, a new class of central nervous system agents” (J Med Chem, 1978) come the findings set out here.

By LD50 is commonly meant the dose expected to kill half of the subjects tested.

Some results are limits rather than exact numbers.

Data set [1] in a line: Therapeutic index, ratio of PD50 for acute toxicity in po dosed mouse assessed as concentration required to produce 50% loss of righting reflex to MED20 for muscle relaxant activity in po dosed mouse assessed as blockade of pentylenetetrazol-induced tonic extensor seizure. It counts as organism-based. The settings on record: in vivo, read-out: TI.
Data set [2] can be described thus: Therapeutic index, ratio of PD50 for acute toxicity in po dosed mouse assessed as concentration required to produce 50% loss of righting reflex to MED25 for muscle relaxant activity in po dosed mouse assessed as increase in strychnine-induced persistant convulsive threshold. It is filed as organism-based. Particulars: in vivo, read-out: TI.
A short description of data set [3]: Ratio of LD50 for po dosed mouse to PD50 for acute toxicity in po dosed mouse assessed as concentration required to produce 50% loss of righting reflex. It is filed as organism-based. Particulars: in vivo.
Data set [4] deals with Mus musculus. The experiment in a line: Muscle relaxant activity in po dosed mouse assessed as increase in strychnine-induced persistant convulsive threshold. It is filed as functional.
Data set [5] can be described thus: Therapeutic index, ratio of PD50 for acute toxicity in po dosed mouse assessed as concentration required to produce 50% loss of righting reflex to MED20 for anticonvulsant activity in po dosed mouse assessed as blockade of supramaximal electroshock-induced […] seizure. It is filed as organism-based. The settings on record: in vivo, read-out: TI. Background: In the maximal electroshock model the usual endpoint is tonic extension of the hind limbs.

Data set [6] in a line: Acute toxicity in po dosed mouse assessed as mortality administered as qd for 6 days measured on day 7 post last dose. It is filed as organism-based. The settings on record: in vivo.
The test system of data set [7] is Mus musculus. The experiment in a line: Anticonvulsant activity in po dosed mouse assessed as blockade of supramaximal electroshock-induced […] seizure. It is filed as functional.
The test system of data set [8] is Rattus norvegicus. The experiment in a line: Antianxiety activity in ip dosed rat assessed as effect on increase in punished responses administered qd for 5 days measured every day for 5 days. It counts as functional. The settings on record: 120 h, read-out: MED.
The test system of data set [9] is Mus musculus. In words: Muscle relaxant activity in po dosed mouse assessed as blockade of pentylenetetrazol-induced tonic extensor seizure. It is filed as functional.
Data set [10] has as its system Mus musculus. In words: Acute toxicity in po dosed mouse assessed as concentration required to produce 50% loss of righting reflex administered as qd for 4 days measured for 1 min post last dose. It counts as organism-based. Particulars: in vivo.

For the molecule `COc1ccccc1OCC(O)COC(N)=O` (stereo not given) [METHOCARBAMOL], the selectivity ratio in data set [1] was 7; in data set [2], 3.4; in [3], 1.9; in [5], 8.7. In data set [4], the MED25 was found to be 310 mg/kg. The LD50 at 144 h in data set [6] stood at 2000 mg/kg. In addition, the MED20 in [7] came to 120 mg/kg; in data set [9], 150 mg/kg. In addition, the minimal effective dose in data set [8] is greater than 25 mg/kg. The PD50 in data set [10] was 1050 mg/kg.
